{"source": "paper PMC6006285", "about": "“Specific stereochemistry of OP-1074 disrupts estrogen receptor alpha helix 12 and confers pure antiestrogenic activity” (Nature Communications, 2018)", "biological_target": "T1, Estrogen Receptor α LBD (ERα) (Homo sapiens, UniProt P03372)", "T1 construct": "2 nM biotinylated Estrogen Receptor α LBD (ERα) was incubated; biotin (biotinylated)", "T1 sequence (P03372 311-547 limits assumed)": "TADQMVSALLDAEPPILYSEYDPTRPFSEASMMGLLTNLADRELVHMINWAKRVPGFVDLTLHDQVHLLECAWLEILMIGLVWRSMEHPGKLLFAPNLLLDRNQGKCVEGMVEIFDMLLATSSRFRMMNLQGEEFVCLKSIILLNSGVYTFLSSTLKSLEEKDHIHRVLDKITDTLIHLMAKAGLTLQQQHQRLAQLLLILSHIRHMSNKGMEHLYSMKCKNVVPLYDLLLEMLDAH", "experiment": "Competitive ligand binding assay with [3H]-E2", "conditions": "10 nM [3H]-E2 tracer, 2 nM biotinylated ERα LBD; representative experiment", "method": "Experimental data points are mean + /− s.e.m. of triplicate samples in a representative experiment. […] Experimental data points are mean + /− s.d. of triplicate samples in a representative experiment\nTriplicate reactions were vortexed and 100 μL was added in triplicate to a 96-well streptavidin flashplate (Perkin Elmer #SMP103001PK), which incubated overnight at 4 °C prior to reading.", "note": "pIC50: −log10 of the molar value."}
{"smiles": "CC1=C(c2ccc(O)cc2)[C@H](c2ccc(OCCN3CC[C@@H](C)C3)cc2)Oc2cc(O)ccc21", "note": "[OP-1074]", "values": [{"measurement": "pIC50", "result": 8.15}]}
